The values below come from patent US8338643B2, “Reagent for introduction of protein or gene” (Waseda University, priority 2006, dated 2012).

Data set [1] can be described thus: Particle size of liposomes by dynamic light scattering. It is filed as physicochemical. The settings on record: DOPE mixed membrane, in nm. The procedure: (§1) The particle size and the ζ potential of the prepared cationic liposomes were measured. In the measurement of the particle size, the particle size in the case of the lipid concentration of 30 μM was measured by the dynamic light scattering method. In the measurement of the ζ potential, a liposome dispersion was diluted with a HEPES buffer solution (pH 7.4), and the ζ potential in the case of 30 μM was measured.
(§2) Use of a cationic lipid as a reagent for gene introduction was studied. Cationic liposomes consisting of a mixed membrane constituted by DOPE as a membrane-fusogenic lipid and a cationic lipid were prepared. 15 mg of the mixed lipid (the introduction amount of cationic lipid membrane in mixed membrane was adjusted to 20, 30, 40 or 50 mol %) was dispersed in 1.5 mL of the HEPES buffer solution (pH 7.4), and a liposome having the particle size of about 100 nm was prepared using a probe-type ultrasonic apparatus. The particle size was measured by the dynamic light scattering method. In the table, A represents a cationic lipid 2 and a cationic lipid 6; B represents a cationic lipid 5; C represents a cationic lipid 7; and D represents a cationic lipid 8.

A short description of data set [2]: ζ potential of liposomes. Format: physicochemical. The settings on record: for ζ potential: DOPE mixed membrane, in mV. As for the experimental part:
As evaluation of physical properties, the quantification of lipid was carried out by means of quantification of choline-type phospholipid, and quantification of encapsulated protein was carried out by means of HPLC (220 nm). In addition, the particle size and ζ potential were measured by the dynamic light scattering method (BECKMAN COULTER, N4 PLUS). […]
as §1
Next, the ζ potential of the prepared cationic liposomes was measured. A to D in the table was the same as Table 9.

Data set [3] concerns COS-1 cells. Briefly: Gene expression level by luciferase assay, lipid/pDNA complex. Format: cell-based. The settings on record: for Gene expression level: COS-1, DOPE/cationic lipid liposome, 200 ng DNA, 24 hours. As for the experimental part:
as §2
In order to evaluate the gene transfer ability of the prepared cationic liposomes, the gene expression level was calculated based on luciferase assay using an luciferase-encoding plasmid vector (phRL-TK) (n=3).
The experimental protocol was as follows. The amount of transfected DNA was set to 200 ng in all the cases. In 100 μL of medium, COS-1 cells (1×10^4 cells/well) were seeded on a 96-well plate, and cultured in a CO2 incubator for 12 hours. A complex of lipid and plasmid DNA (lipid/pDNA complex) was allowed to stand for minutes, and diluted with the medium to be added to the cells. After that, culture in the CO2 incubator was carried out for 24 hours. The medium was removed, and washing with PBS(−) was carried out twice. Then, a dissolution buffer diluted 5-fold with MilliQ water was added to the medium (25 μl/well), and the cells were solubilized. The obtained solution was mildly stirred and allowed to stand at room temperature for minutes. To 20 μL of the cell solution, 100 μL of the coelenterazine solution was added, and the luminescence intensity was measured using a luminometer.

In the case of Lys-(CH2)11-Glu2C16 [Compound 8], the Particle size in data set [1] (cationic lipid 20 mol %) turned out to be 95 ± 36; in data set [1] (cationic lipid 30 mol %), 113 ± 50; in data set [1] (cationic lipid 40 mol %), 80 ± 39; in data set [1] (cationic lipid 50 mol %), 95 ± 36. The “ζ potential, comparison between lipids” value in data set [2] (DOPE mixed membrane liposomes) is “slightly lower than that of the lipid 7”. The ζ potential turned out to be 30 ± 1.2 in data set [2] (cationic lipid 20 mol %), 37 ± 0.8 in data set [2] (cationic lipid 30 mol %), 37 ± 3.1 in data set [2] (cationic lipid 40 mol %) and 44 ± 1.6 in data set [2] (cationic lipid 50 mol %).
As for `CCCCCCCCCCCCCCCCOC(=O)CCC(NC(=O)C(N)CCCCN)C(=O)OCCCCCCCCCCCCCCCC` (stereo not drawn) [Compound 2, Lys-Glu2C16], the Gene expression level entry in data set [3] is reported as “the gene expression level was low”.
With Lys-(CH2)3-Glu2C16 [Compound 6], in data set [3], the Gene expression level result is on record as “a high expression efficiency was obtained”. Also, the “Gene expression efficiency at best conditions” value in data set [3] (DOPE/lipid 6=6/4 (mol ratio), cationic liposome/plasmid DNA 10/1 (w/w)) is given as “The highest expression efficiency was obtained”.
Turning to `CCCCCCCCCCCCCCCCOC(=O)CCC(NC(=O)CCCCCNC(=O)C(N)CCCCN)C(=O)OCCCCCCCCCCCCCCCC` (stereo not drawn) [Compound 5, Lys-(CH2)5-Glu2C16], the Particle size in data set [1] (cationic lipid 20 mol %) worked out at 99 ± 45; in data set [1] (cationic lipid 30 mol %), 95 ± 46; in data set [1] (cationic lipid 40 mol %) it was 91 ± 43; in data set [1] (cationic lipid 50 mol %), 100 ± 47. Besides, the ζ potential is 28 ± 3.4 in data set [2] (cationic lipid 20 mol %), 37 ± 0.2 in data set [2] (cationic lipid 30 mol %), 42 ± 3.0 in data set [2] (cationic lipid 40 mol %) and 41 ± 1.3 in data set [2] (cationic lipid 50 mol %). In addition, the Gene expression level entry in data set [3] was “the expression level was lower than that of the spacer-contained lipid 6”.
Take Lys-(CH2)7-Glu2C16 [Compound 7]: the Particle size in data set [1] (cationic lipid 20 mol %) is 88 ± 42; in data set [1] (cationic lipid 30 mol %), 98 ± 37; in data set [1] (cationic lipid 40 mol %), 86 ± 40; in data set [1] (cationic lipid 50 mol %), 100 ± 48. The ζ potential was 34 ± 42 in data set [2] (cationic lipid 20 mol %), 40 ± 3.3 in data set [2] (cationic lipid 30 mol %), 49 ± 3.3 in data set [2] (cationic lipid 40 mol %) and 37 ± 3.1 in data set [2] (cationic lipid 50 mol %). Moreover, the Gene expression level entry in data set [3] was “the gene expression level was low”.
